Laboratory results as given in ChEMBL document CHEMBL5236659, “Design, synthesis and antitumor activity of novel thiophene- triazine derivatives bearing arylurea unit as potent PI3K/mTOR inhibitorss” (Bioorg Med Chem, 2023).
The source made the active and inactive calls. No cut-off for these calls is given here.

Assays:
[1] = test system: HeLa; assay: Antiproliferative activity against human HeLa cells assessed as inhibition of cell growth incubated for 72 hrs by MTT assay; format: functional, cell-based
[2] = target: Vascular endothelial growth factor receptor 2 (Homo sapiens) (UniProt P35968); assay: Inhibition of KDR (unknown origin) at 1 uM by kinase-glo luminescent assay relative to control
Chain of Vascular endothelial growth factor receptor 2 (Homo sapiens) (P35968 whole entry): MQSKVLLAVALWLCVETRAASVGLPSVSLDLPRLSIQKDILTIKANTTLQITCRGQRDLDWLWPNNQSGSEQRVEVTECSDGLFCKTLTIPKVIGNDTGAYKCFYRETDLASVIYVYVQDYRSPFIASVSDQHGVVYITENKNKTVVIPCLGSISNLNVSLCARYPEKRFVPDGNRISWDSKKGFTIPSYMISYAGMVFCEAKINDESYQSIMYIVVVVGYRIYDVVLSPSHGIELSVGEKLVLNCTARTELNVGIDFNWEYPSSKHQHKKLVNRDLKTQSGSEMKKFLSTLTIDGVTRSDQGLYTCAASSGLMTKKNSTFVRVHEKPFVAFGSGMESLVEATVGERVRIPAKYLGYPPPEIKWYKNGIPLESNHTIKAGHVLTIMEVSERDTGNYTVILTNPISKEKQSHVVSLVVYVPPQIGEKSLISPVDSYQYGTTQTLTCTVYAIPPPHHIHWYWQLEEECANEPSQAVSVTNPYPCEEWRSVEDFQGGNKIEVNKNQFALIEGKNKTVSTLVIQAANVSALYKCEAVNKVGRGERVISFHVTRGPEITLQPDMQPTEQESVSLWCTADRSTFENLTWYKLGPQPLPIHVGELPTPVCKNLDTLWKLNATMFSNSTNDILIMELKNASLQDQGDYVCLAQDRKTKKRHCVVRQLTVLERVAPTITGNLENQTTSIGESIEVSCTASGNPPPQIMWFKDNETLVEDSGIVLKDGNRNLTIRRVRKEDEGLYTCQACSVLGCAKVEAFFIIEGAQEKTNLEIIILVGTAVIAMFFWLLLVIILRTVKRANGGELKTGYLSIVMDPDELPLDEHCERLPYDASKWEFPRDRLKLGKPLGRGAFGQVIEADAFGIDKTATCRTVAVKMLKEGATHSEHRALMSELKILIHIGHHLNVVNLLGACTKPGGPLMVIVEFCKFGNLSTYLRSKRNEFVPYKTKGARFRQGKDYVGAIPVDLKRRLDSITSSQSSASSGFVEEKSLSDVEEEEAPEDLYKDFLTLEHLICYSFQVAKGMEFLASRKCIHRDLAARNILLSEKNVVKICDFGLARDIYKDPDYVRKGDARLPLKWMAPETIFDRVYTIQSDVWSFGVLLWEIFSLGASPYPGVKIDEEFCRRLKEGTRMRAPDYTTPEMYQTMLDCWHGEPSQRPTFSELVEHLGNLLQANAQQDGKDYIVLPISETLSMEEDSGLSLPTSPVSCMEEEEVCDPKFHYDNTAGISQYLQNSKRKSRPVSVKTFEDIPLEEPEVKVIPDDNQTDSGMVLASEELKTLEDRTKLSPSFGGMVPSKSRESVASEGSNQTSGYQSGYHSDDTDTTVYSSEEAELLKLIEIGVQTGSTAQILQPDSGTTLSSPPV

[3] = test system: NCI-H1975; assay: Antiproliferative activity against human NCI-H1975 cells overexpressing EGFR L858R/T790M mutant assessed as inhibition of cell growth incubated for 72 hrs by MTT assay; format: functional, cell-based; conditions: NCI-H1975, 72 h
[4] = test system: NCI-H460; assay: Antiproliferative activity against human NCI-H460 cells assessed as inhibition of cell growth incubated for 72 hrs by MTT assay; format: functional, cell-based; conditions: NCI-H460, 72 h
[5] = target: RAC-alpha serine/threonine-protein kinase (Homo sapiens) (UniProt P31749); assay: Inhibition of AKT1 (unknown origin) at 1 uM by kinase-glo luminescent assay relative to control
Chain of RAC-alpha serine/threonine-protein kinase (Homo sapiens) (P31749 whole entry, canonical isoform): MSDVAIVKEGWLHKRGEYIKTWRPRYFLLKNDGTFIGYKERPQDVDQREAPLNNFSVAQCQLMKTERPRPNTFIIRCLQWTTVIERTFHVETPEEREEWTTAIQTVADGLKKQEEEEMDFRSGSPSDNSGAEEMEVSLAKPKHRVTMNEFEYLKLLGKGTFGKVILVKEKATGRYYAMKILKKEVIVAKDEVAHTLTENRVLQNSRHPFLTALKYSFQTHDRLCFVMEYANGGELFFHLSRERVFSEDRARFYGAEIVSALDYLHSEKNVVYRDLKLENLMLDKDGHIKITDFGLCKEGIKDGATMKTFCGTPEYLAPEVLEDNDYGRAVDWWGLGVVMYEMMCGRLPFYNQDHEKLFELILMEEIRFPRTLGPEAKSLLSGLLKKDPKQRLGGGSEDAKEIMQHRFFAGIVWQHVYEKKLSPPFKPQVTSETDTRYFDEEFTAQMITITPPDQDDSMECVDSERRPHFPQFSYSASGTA

[6] = target: T1, Phosphatidylinositol 4,5-bisphosphate 3-kinase catalytic subunit alpha isoform (Homo sapiens, UniProt P42336); assay: Inhibition of PI3Kalpha (unknown origin) at 1 uM by kinase-glo luminescent assay relative to control
T1 sequence (P42336 whole entry, canonical isoform): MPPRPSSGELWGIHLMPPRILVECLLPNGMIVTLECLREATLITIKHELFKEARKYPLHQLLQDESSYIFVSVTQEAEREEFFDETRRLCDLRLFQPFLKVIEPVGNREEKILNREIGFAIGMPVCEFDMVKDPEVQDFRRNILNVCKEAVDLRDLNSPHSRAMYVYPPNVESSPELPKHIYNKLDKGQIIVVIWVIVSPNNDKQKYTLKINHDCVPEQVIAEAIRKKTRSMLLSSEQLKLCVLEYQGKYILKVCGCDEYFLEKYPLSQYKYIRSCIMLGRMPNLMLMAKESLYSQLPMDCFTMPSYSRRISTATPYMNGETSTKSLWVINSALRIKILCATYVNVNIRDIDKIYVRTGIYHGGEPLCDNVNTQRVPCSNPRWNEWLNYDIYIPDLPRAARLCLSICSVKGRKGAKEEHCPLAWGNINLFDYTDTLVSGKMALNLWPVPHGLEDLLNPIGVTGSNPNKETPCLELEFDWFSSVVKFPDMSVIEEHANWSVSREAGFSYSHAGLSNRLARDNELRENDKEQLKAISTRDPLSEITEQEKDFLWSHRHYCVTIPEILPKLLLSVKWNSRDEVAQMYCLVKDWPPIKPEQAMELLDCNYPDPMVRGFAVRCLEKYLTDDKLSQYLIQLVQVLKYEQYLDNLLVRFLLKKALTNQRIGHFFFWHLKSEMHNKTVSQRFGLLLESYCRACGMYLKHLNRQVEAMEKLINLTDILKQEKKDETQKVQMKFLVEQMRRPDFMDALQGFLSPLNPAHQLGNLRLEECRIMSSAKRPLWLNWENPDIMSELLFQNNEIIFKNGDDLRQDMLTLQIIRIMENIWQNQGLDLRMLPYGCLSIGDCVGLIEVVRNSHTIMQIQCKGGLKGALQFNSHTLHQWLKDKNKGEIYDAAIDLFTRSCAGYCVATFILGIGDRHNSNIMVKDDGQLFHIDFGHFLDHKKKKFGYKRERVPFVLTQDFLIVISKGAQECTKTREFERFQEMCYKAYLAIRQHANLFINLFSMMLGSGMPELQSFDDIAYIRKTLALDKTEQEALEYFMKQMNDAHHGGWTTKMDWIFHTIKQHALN

[7] = test system: A549; assay: Antiproliferative activity against human A549 cells assessed as inhibition of cell growth incubated for 72 hrs by MTT assay; format: functional, cell-based; conditions: A549, 72 h
[8] = target: Epidermal growth factor receptor (Homo sapiens) (UniProt P00533); assay: Inhibition of EGFR (unknown origin) at 1 uM by kinase-glo luminescent assay relative to control
Chain of Epidermal growth factor receptor (Homo sapiens) (P00533 whole entry): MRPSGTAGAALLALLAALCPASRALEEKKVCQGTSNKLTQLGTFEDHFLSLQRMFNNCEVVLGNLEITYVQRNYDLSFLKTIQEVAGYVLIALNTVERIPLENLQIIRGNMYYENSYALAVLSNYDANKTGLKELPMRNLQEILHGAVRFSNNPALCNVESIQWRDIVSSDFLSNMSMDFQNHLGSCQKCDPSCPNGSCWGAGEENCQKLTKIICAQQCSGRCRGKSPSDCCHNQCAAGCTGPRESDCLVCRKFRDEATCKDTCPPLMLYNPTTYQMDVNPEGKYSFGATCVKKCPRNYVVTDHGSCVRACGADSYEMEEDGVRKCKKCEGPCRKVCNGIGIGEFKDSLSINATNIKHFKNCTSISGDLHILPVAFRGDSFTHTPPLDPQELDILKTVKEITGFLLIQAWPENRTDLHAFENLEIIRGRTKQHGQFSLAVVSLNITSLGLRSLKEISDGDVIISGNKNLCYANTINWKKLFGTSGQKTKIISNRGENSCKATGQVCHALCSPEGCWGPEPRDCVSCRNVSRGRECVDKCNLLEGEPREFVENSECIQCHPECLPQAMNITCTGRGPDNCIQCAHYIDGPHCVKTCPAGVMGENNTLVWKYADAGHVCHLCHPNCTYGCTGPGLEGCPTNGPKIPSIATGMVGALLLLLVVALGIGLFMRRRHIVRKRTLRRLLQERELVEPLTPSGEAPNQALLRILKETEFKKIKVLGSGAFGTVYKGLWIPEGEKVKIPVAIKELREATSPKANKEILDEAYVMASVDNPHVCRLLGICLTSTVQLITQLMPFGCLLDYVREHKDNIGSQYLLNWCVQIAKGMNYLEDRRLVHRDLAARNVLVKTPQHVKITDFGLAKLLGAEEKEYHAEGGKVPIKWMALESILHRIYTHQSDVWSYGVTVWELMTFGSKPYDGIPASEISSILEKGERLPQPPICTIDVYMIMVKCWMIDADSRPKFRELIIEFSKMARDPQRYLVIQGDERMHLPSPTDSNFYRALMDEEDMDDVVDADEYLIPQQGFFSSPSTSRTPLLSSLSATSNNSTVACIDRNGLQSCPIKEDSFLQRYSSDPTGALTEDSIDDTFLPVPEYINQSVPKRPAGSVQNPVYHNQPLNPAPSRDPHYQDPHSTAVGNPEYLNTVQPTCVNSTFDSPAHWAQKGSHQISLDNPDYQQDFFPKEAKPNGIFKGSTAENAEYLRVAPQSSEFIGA

[9] = Antiproliferative activity against human OVCAR-2 cells assessed as inhibition of cell growth incubated for 72 hrs by MTT assay; format: functional, cell-based; conditions: OVCAR-2, 72 h
[10] = Antiproliferative activity against human U-87 MG cells assessed as inhibition of cell growth incubated for 72 hrs by MTT assay; format: functional, cell-based, U-87MG ATCC
[11] = Cytotoxicity against human L02 cells assessed as inhibition of cell growth incubated for 72 hrs by MTT assay; format: toxicity, cell-based
[12] = test system: HeLa; assay: Antiproliferative activity against paclitaxel-resistant human HeLa cells assessed as inhibition of cell growth incubated for 72 hrs by MTT assay; format: functional, cell-based
[13] = target: T1, Phosphatidylinositol 4,5-bisphosphate 3-kinase catalytic subunit alpha isoform; assay: Inhibition of PI3Kalpha (unknown origin) by kinase-glo luminescent assay
[14] = test system: MCF7; assay: Antiproliferative activity against human MCF7 cells assessed as inhibition of cell growth incubated for 72 hrs by MTT assay; format: functional, cell-based; conditions: MCF7, 72 h
[15] = target: T2, Serine/threonine-protein kinase mTOR (Homo sapiens, UniProt P42345); assay: Inhibition of mTOR (unknown origin) at 1 uM by kinase-glo luminescent assay relative to control
[16] = Selectivity ratio of IC50 for antiproliferative activity against human HeLa cells to IC50 for antiproliferative activity against paclitaxel-resistant human HeLa cells; format: functional
[17] = Selectivity ratio of IC50 for antiproliferative activity against human A549 cells to IC50 for antiproliferative activity against human NCI-H1975 cells overexpressing EGFR L858R/T790M mutant; format: functional
[18] = Selectivity ratio of IC50 for antiproliferative activity against human MCF7 cells to IC50 for antiproliferative activity against human U-87 MG cells; format: functional
[19] = species on record: Homo sapiens; assay: Selectivity index, ratio of IC50 for inhibition of PI3Kalpha (unknown origin) to IC50 for inhibition of mTOR (unknown origin) by kinase glo luminescent assay
[20] = test system: NCI-H2228; assay: Antiproliferative activity against human NCI-H2228 cells assessed as inhibition of cell growth incubated for 72 hrs by MTT assay; format: functional, cell-based
[21] = target: T2, Serine/threonine-protein kinase mTOR; assay: Inhibition of mTOR (unknown origin) by kinase-glo luminescent assay
[22] = target: T1, Phosphatidylinositol 4,5-bisphosphate 3-kinase catalytic subunit alpha isoform; assay: Inhibition of PI3Kalpha in human MCF7 cells assessed as decrease in PI3Kalpha gene expression incubated for 24 hrs by fluorescence quantitative PCR assay; format: cell-based; conditions: dose 0.8-1.6 µM
[23] = Hemolytic activity in 2% sheep RBC assessed as hemolysis at 16 to 256 ug/ml incubated for 3 hrs; format: toxicity, cell-based, Ovis aries; conditions: erythrocyte, dose 16-256 µg/ml
[24] = Homo sapiens, NCI-H2228, 72 h, read-out: IC50

Compound | IC50 [1] [µM] | IC50 [3] [µM] | IC50 [4] [µM] | inhibition [6] [%] | IC50 [7] [µM] | IC50 [12] [µM] | IC50 [13] [µM] | IC50 [14] [µM] | inhibition [15] [%] | IC50 [9] [µM] | IC50 [10] [µM] | Ratio IC50 [16] | Ratio IC50 [17] | Ratio IC50 [18] | also measured
Cn1ccc(NC(=O)Nc2ccc(-c3nc(-c4ccc(CN5CCN(S(C)(=O)=O)CC5)s4)nc(N4CCOCC4)n3)cc2)n1 | 2.36 | 0.16 | 3.21 | 80.1 | 0.11 | 2.07 | 0.299 | 1.05 | – | 1.06 | 0.24 | – | – | – | inhibition [2]: inactive; inhibition [5]: 1.02%; inhibition [8]: inactive; IC50 at 72 h [11]: > 100 µM
CS(=O)(=O)N1CCN(Cc2ccc(-c3nc(-c4ccc(NC(=O)Nc5ccn[nH]5)cc4)nc(N4CCOCC4)n3)s2)CC1 | 4.3 | 5.27 | 11.5 | 87.2 | 3.62 | 0.23 | – | 1.8 | 91.1 | 2.12 | 8.96 | 18.7 | 0.69 | 0.2 | inhibition [2]: 1.77%; inhibition [5]: 4.03%; inhibition [8]: 10.5%; IC50 at 72 h [11]: > 100 µM
CS(=O)(=O)N1CCN(Cc2ccc(-c3nc(-c4ccc(NC(=O)Nc5nn[nH]n5)cc4)nc(N4CCOCC4)n3)s2)CC1 | 48.5 | > 100 | > 100 | – | 2.82 | > 100 | – | 15.2 | – | > 100 | > 100 | – | – | – | –
CS(=O)(=O)N1CCN(Cc2ccc(-c3nc(-c4ccc(NC(=O)Nc5ccc6[nH]ncc6c5)cc4)nc(N4CCOCC4)n3)s2)CC1 | 2.14 | 31.2 | 20.5 | 93 | 14.2 | 10.5 | – | 0.11 | 96.4 | 12.6 | 15.1 | 0.2 | 0.46 | 0.007 | –
CS(=O)(=O)N1CCN(Cc2ccc(-c3nc(-c4ccc(NC(=O)NN5CCOCC5)cc4)nc(N4CCOCC4)n3)s2)CC1 | 31.2 | 0.11 | > 100 | – | 20.5 | 22.6 | – | 9.11 | – | 15.9 | 26.9 | 1.38 | 186.72 | 0.34 | –
CS(=O)(=O)N1CCN(Cc2cc3nc(-c4cccc5[nH]ncc45)nc(N4CCOCC4)c3s2)CC1 [PICTILISIB] | 3.15 | 2.42 | 2.68 | 97.8 | 1.03 | 2.97 | – | 1.2 | 90.6 | 1.25 | 3.13 | – | – | – | inhibition [2]: inactive; inhibition [5]: inactive; IC50 [20, 24]: 1.07 µM; inhibition [8]: inactive
Cn1nccc1NC(=O)Nc1ccc(-c2nc(-c3ccc(CN4CCN(S(C)(=O)=O)CC4)s3)nc(N3CCOCC3)n2)cc1 | 45.1 | 9.87 | 10.6 | 47.5 | 16.4 | 31.7 | 1.33 | 0.42 | 72.7 | 15.9 | 8.61 | 1.43 | 1.67 | 0.048 | Ratio IC50 [19]: 2.33; IC50 [21]: 0.571 µM
CS(=O)(=O)N1CCN(Cc2ccc(-c3nc(-c4ccc(NC(=O)Nn5cnnc5)cc4)nc(N4CCOCC4)n3)s2)CC1 | 42.8 | > 100 | > 100 | 46.8 | 50.4 | > 100 | 1.74 | 1.82 | – | 26.9 | > 100 | – | – | – | –
CS(=O)(=O)N1CCN(Cc2ccc(-c3nc(-c4ccc(NC(=O)NC5CN6CCC5CC6)cc4)nc(N4CCOCC4)n3)s2)CC1 (stereo not drawn) | 17.1 | 40.5 | > 100 | 9 | 2.38 | 17.2 | 8.97 | 7.46 | 17.1 | 22.9 | 21.5 | 0.99 | 0.059 | 0.35 | Ratio IC50 [19]: 1.13; IC50 [21]: 7.96 µM
CS(=O)(=O)N1CCN(Cc2ccc(-c3nc(-c4ccc(NC(=O)Nc5cncnc5)cc4)nc(N4CCOCC4)n3)s2)CC1 | 15 | 6.78 | > 100 | – | 10.8 | 28 | – | 7.61 | – | 20.1 | 14.9 | 0.54 | 1.59 | 0.51 | –

Second part, led by results:

IC50 [1] [µM] | IC50 [3] [µM] | IC50 [4] [µM] | inhibition [6] [%] | IC50 [7] [µM] | IC50 [12] [µM] | IC50 [13] [µM] | IC50 [14] [µM] | inhibition [15] [%] | Compound | IC50 [9] [µM] | IC50 [10] [µM] | Ratio IC50 [16] | Ratio IC50 [17] | Ratio IC50 [18] | also measured
18.2 | 8.22 | 25.4 | 20.6 | 7.08 | 0.021 | 2.36 | 5.87 | 76.6 | CS(=O)(=O)N1CCN(Cc2ccc(-c3nc(-c4ccc(NC(=O)Nc5cnccn5)cc4)nc(N4CCOCC4)n3)s2)CC1 | 15.8 | > 100 | 912.5 | 0.86 | – | Ratio IC50 [19]: 14.7; IC50 [20, 24]: 10.3 µM; IC50 [21]: 0.16 µM
13.8 | 7.86 | > 100 | – | 53.9 | > 100 | – | > 100 | – | Cn1ccnc1NC(=O)Nc1ccc(-c2nc(-c3ccc(CN4CCN(S(C)(=O)=O)CC4)s3)nc(N3CCOCC3)n2)cc1 | – | > 100 | – | – | – | –
15.2 | 12.7 | 17.9 | 91.3 | 13.1 | 12.6 | – | 12.5 | 93 | CS(=O)(=O)N1CCN(Cc2ccc(-c3nc(-c4ccc(NC(=O)Nc5ncccn5)cc4)nc(N4CCOCC4)n3)s2)CC1 | > 100 | > 100 | 1.21 | 1.03 | – | –
1.04 | 0.008 | 2.31 | 88.2 | 0.47 | 0.37 | 0.177 | 0.3 | – | CS(=O)(=O)N1CCN(Cc2ccc(-c3nc(-c4ccc(NC(=O)Nc5ccncc5)cc4)nc(N4CCOCC4)n3)s2)CC1 | 0.25 | 1.25 | – | – | – | inhibition [2]: 1.74%; inhibition [5]: 18.2%; IC50 [20, 24]: 0.22 µM; inhibition [22]: Dose-Dependent Effect; inhibition [8]: 6.24%; Activity [23]: Non-Toxic; IC50 at 72 h [11]: > 100 µM
6.01 | 0.076 | 7.57 | 16.1 | 10.1 | 9.27 | 3 | 3.34 | – | CS(=O)(=O)N1CCN(Cc2ccc(-c3nc(-c4ccc(NC(=O)Nc5ccccn5)cc4)nc(N4CCOCC4)n3)s2)CC1 | 3.52 | 10.5 | – | – | – | –
28.2 | 5.53 | > 100 | 43.4 | 44.9 | > 100 | – | 30.7 | 86.8 | CS(=O)(=O)N1CCN(Cc2ccc(-c3nc(-c4ccc(NC(=O)Nc5ccncn5)cc4)nc(N4CCOCC4)n3)s2)CC1 | > 100 | 25.2 | – | 8.12 | 1.21 | –
25.5 | 22.5 | > 100 | 94.5 | 13.2 | 21.4 | – | 13 | 97.3 | CS(=O)(=O)N1CCN(Cc2ccc(-c3nc(-c4ccc(NC(=O)Nc5nc[nH]n5)cc4)nc(N4CCOCC4)n3)s2)CC1 | 12.3 | 18.2 | 1.19 | 0.59 | 0.71 | –
7.58 | > 100 | 14.3 | 47.7 | 48.9 | 38.5 | 1.79 | 20.1 | – | CS(=O)(=O)N1CCN(Cc2ccc(-c3nc(-c4ccc(NC(=O)Nc5ncc[nH]5)cc4)nc(N4CCOCC4)n3)s2)CC1 | 22.6 | > 100 | – | – | – | IC50 ([20]; nci-h2228): Not Active
